# Experimental data as given in patent US8975298B2, “Therapeutic agent for pain” (ONO Pharmaceutical Co., Ltd., priority 2005, dated 2015).
# Several values for one entry are separate records, joined by “and”; a condition that tells them apart may be missing. Equal entries are not always repeated.
# Columns and labels:
# [1] = tested on: spinal nerve ligation model rats; test: Latent time of pain response to heat stimulus (heat hyperalgesia) in rat spinal nerve ligation model; assay type: in vivo
# Experimental: (§1) Male rats were used in the experiment. Spinal nerve ligation models were made in accordance with the method of Kim & Chung (Kim, S. H. & Chung, J. M., An experimental model for peripheral neuropathy produced by segmental spinal nerve ligation in the rat, Pain, 50, 355-363, 1992). Namely, the fifth lumber nerve in one side was strongly ligated with silken threads.
# (§2) More specifically, the models were made in the following manner.
# (§3) After intraperitoneally administering 40 mg/kg (liquid volume 0.8 ml/kg) of pentobarbital (Nenbutal Injection (trade name), Dainippon Pharmaceutical Co., Ltd.), a rat was fixed in the dorsal position under anesthesia and the abdomen was incised in the median line with scissors. The intestines and the like were pushed aside with sterilized gauze and the abdominal aorta and the abdominal vein were confirmed. Then, the muscle located immediately below the iliolumbar vein was cleaved with tweezers. After confirming the fourth lumber nerve and the fifth lumber nerve in the muscle, the fifth lumber nerve (L5) was ligated with 6-0 silken threads. Subsequently, the intestines having been pushed away were returned to the original positions. 5 ml of physiological saline (otsuka Pharmaceutical Factory, Inc.) containing ampicillin sodium (Viccillin for Injection (trade name), Meiji Seika Kaisha, Ltd.) (ampicillin concentration: 20 mg/ml) was poured into the peritoneal cavity, and the abdominal muscles and skin were sutured with a nylon thread.
# From immediately after the spinal nerve ligation, 30 mg/kg of (2R)-2-propyloctanoic acid was orally administered once a day for 14 days (14 times in total). Also, vehicle control was administered in the same manner. […]
# On the next day of the final administration, the latent time of heat stimulus was measured. Namely, right and left footpads were irradiated with infrared light of a halogen lamp from the lower side, and the time until the occurrence of an escape response (the latent time of pain reaction: sec) was measured.
# [2] = tested on: spinal nerve ligation model rats; test: Escape threshold of contact stimulus, von Frey filaments (contact allodynia) in rat spinal nerve ligation model; assay type: in vivo
# Experimental: as §1, §2, §3
# From immediately after the spinal nerve ligation, 30 mg/kg of (2R)-2-propyloctanoic acid was orally administered once a day for 14 days (14 times in total). Also, vehicle control was administered in the same manner.
# (3-2) Measurement of Escape Threshold of Contact Stimulus (Evaluation of Contact Allodynia)
# On the next day of the final administration, the escape threshold of a contact stimulus was measured. Namely, filaments (von Frey filaments: VFF) were pressed against right and left footpads from the lower side. Then, the VFF indication at the occurrence of an escape response was recorded and converted into weight (g).
# dogs = conditions: dog, in vivo, iv, 100 mg/kg
# Excerpt: Since the toxicity of (2R)-2-propyloctanoic acid, a salt thereof or a prodrug thereof is extremely low, it can be considered to be sufficiently safe for medicinal uses.
# [3] = 30 mg/kg orally once a day for 14 days from immediately after L5 ligation, measured next day after final administration, injured (operated-on) side
# [4] = 30 mg/kg orally once a day for 14 days from immediately after L5 ligation, measured next day after final administration, normal (opposite) side
# [5] = 30 mg/kg orally, 14 days, injured side vs vehicle control, p<0.01 Welch test
smiles,measurement,setting,value
CCCCCC[C@@H](CCC)C(=O)O [(2R)-2-propyloctanoic acid],Latent time of pain response (sec) Injured side,[1]; [3],13.61 s and 13.61 ± 6.76 s
same,Latent time of pain response (sec) Normal side,[1]; [4],19.00 s and 19.00 ± 5.58 s
same,Analgesic effect on heat hyperalgesia,[1]; [5],an analgesic effect on heat hyperalgesia was confirmed
same,Escape threshold of contact stimulus (g) Injured side,[2]; [3],14.7 g and 14.7 ± 12.7 g
same,Escape threshold of contact stimulus (g) Normal side,[2]; [4],66.1 g and 66.1 ± 29.8 g
same,Analgesic effect on contact allodynia,[2]; [5],an analgesic effect on contact allodynia was confirmed
same,Fatal cases,dogs,no fatal case was observed
